Experimental data as given in US11274095B2, “Modulators of methyl modifying enzymes, compositions and uses thereof” (Constellation Pharmaceuticals, Inc., priority 2018, dated 2022).

Experiments:
PRC2 containing wt EZH2 [1] = molecular target: T1, PRC2 containing wt EZH2 (Homo sapiens (Human), UniProt Q15910); assay: EZH2 biochemical assay (IC50), 3H-SAM incorporation into biotinylated H3 peptide; settings: 30 pM PRC2 with wt EZH2, 3-5 h pre-incubation
Experimental: EZH2 biochemical assay (IC50): Compound potencies were assessed through incorporation of ^3H-SAM into a biotinylated H3 peptide. Specifically, 30 pM PRC2 containing wt EZH2 (pentameric complex prepared in-house) was pre-incubated with 450 nM SAM, 450 nM ^3H-SAM, 2 μM H3K27me3 activating peptide (H2N-RKQLATKAAR(Kme3)SAPATGGVKKP-amide) and compounds (as 10 point duplicate dose response titrations in DMSO, final assay 0.8% DMSO (v/v)) for 3-5 h in 50 mM Tris (pH 8.5), 1 mM DTT, 0.07 mM Brij-35, 0.1% BSA, and 0.8% DMSO in a total volume of 12.5 μl. Reaction was initiated with biotinylated H3 substrate peptide (H2N-RKQLATKAAR(Kmel)SAPATGGVKKP-NTPEGBiot) as a 2 μM stock in 12.5 μl of buffer and allowed to react at room temperature for 18-22 h. Quenching was accomplished by addition of 20 μl of STOP solution (50 mM Tris (pH 8.5), 200 mM EDTA, 2 mM SAH). 35 μl of the quenched solution was transferred to streptavidin coated FlashPlates (PerkinElmer), incubated 1-2 h, washed, and read in a TopCount Reader (PerkinElmer). IC50s were calculated in Genedata Screener using non-linear least square four parameter fits, where the four parameters were IC50, Hill slope, pre-transitional baseline (0% INH), and post-transitional baseline (100% INH).

Karpas-422 cell lines = assay: Karpas-422 viability assay (Cell Titer-Glo, Day 8); format: cell-based; settings: Homo sapiens, KARPAS-422, 192 h, Cell Titer-Glo on Day 8
Experimental: Karpas-422 cell lines were obtained from DSMZ (Braunschweig, Germany) and were grown in RPMI-1640 media. All media contained 10% fetal bovine serum (FBS) and 1% penicillin/streptomycin (Invitrogen). 20K cells per well were plated onto 96 well compound coated plates. Cells were split and seeded at original plating density (based on the DMSO well counts) every 4 days into plates containing fresh EZH2 inhibitors. Relative cell numbers were assessed by Cell Titer-Glo luminescent cell viability assay (Promega) on Day 8. GraphPad Prism 5 was used for curve fitting and GI50 values were reported.

PRC2 containing wt EZH2 [2] = molecular target: T1, PRC2 containing wt EZH2; assay: EZH2 residence time assay (100-fold dilution of enzyme-inhibitor complex); format: biochemical; settings: recovery of enzyme activity after 100-fold dilution; read-out: EZH2 residence time (converted)
Experimental: EZH2 residence time assay: Compound residence times were assessed by monitoring the recovery of enzyme activity following a 100-fold dilution of pre-formed enzyme-inhibitor complex (dilution reaction), and comparing it to the activity of an undiluted control with the same final concentrations of all reagents (control reaction). Enzyme activity was measured by incorporation of ^3H-SAM into a biotinylated H3 peptide. For the dilution reaction, 20 nM PRC2 containing wt EZH2 (pentameric complex prepared in-house) was pre-incubated with 1 μM activating peptide (H2N-RKQLATKAAR(Kme3)SAPATGGVKKP-amide) and compound at 600 times its Ki for 2 h in 40 μL of buffer (50 mM Tris pH 8.5, 4 mM DTT, 1 mM MgCl2, 0.07 mM Brij-35, and 0.1 mg/mL BSA), then diluted 100-fold and the reaction initiated by transferring 1.4 μL to a 138.6 μL volume of buffer containing 1 μM activating peptide, 5.05 μM substrate peptide (H2N-[…]-NTPEGbiot), 1.01 μM SAM, and 1.01 μM ^3H-SAM. […] Reactions were quenched at various time points spanning up to 10 hours, by transferring 8μL aliquots from the reaction vessel to a plate containing 8μL per well of STOP solution (50 mM Tris pH 8.5, 200 mM EDTA, 2 mM SAH). After the last time point, 12 μL of the quenched solutions were transferred to a streptavidin coated FlashPlate (PerkinElmer) containing 40 μL per well of STOP solution, incubated 1-8 h, washed, and read in a TopCount plate reader (PerkinElmer).
A custom script was used to fit control reaction progress data to a straight line and dilution reaction progress data:
[formula] Where y is the product formed, t is the reaction time, vi is the initial velocity, vs is the steady state velocity, and kobs is the rate constant for the transition from the initial velocity phase of the curve to the steady state velocity phase of the curve. In fitting the dilution reaction progress data, vs was constrained to the slope of the line fitted to the control reaction progress data. The fitted value of kobs was then transformed into residence time:
[formula] Where τ is residence time, Ki is the inhibition constant, [EI] is the calculated equilibrium concentration of enzyme-inhibitor complex, [E] is the calculated equilibrium concentration of free enzyme, and [I] is the calculated equilibrium concentration of free inhibitor.

[3] = Cellular permeability in MDCK assay; format: in vitro ADME; settings: dog, pH 7.4, MDCK II, with P-gp inhibitor GF120918 10 μM; for efflux ratio at 2.5 h, 2 μM: Papp(BA)/Papp(AB)
Experimental: Cell culture: MDCK II cells (obtained from Piet Borst at the Netherlands Cancer Institute) were seeded onto […] (PET) in 96-well BD insert systems at 2.5×10^5 cells/mL until to 4-7 days for confluent cell monolayer formation.
Experimental procedure: Test and reference compounds (nadolol, metoprolol and digoxin) were diluted with transport buffer (HBSS with 10mM Hepes, pH7.4) from stock solution to a concentration of 2 μM (<1% DMSO) and applied to the apical (A) or basolateral (B) side of the cell monolayer. Permeation of the test compounds from A to B direction or B to A direction was determined in duplicate with P-gp inhibitor (GF120918, 10 μM). Digoxin was tested at 10 μM from A to B direction or B to A direction with/without P-gp inhibitor (GF120918, 10 μM) as well, while nadolol and metoprolol were tested at 2 μM in A to B direction without P-gp inhibitor (GF120918, 10 μM) in duplicate. The plate was incubated for 2.5 hours in CO2 incubator at 37±1° C., with 5% CO2 at saturated humidity without shaking. In addition, the efflux ratio of each compound was also determined. Test and reference compounds were quantified by LC/MS/MS analysis based on the peak area ratio of analyte/IS. After transport assay, Lucifer yellow rejection assay are applied to determine the cell monolayer integrity. Buffers are removed from both apical and basolateral chambers, followed by the addition of 75 μL of 100 μM lucifer yellow in transport buffer and 250 μL transport buffer in apical and basolateral chambers, respectively. The plate is incubated for 30 minutes at 37° C. with 5% CO2 and 95% relative humidity without shaking. After 30 minutes incubation, 20 μL of lucifer yellow samples are taken from the apical sides, followed by the addition of 60 μL of Transport Buffer. And then 80 μL of lucifer yellow samples are taken from the basolateral sides. The relative fluorescence unit (RFU) of lucifer yellow is measured at 425/528 nm (excitation/emission) with a Molecular Device M2e plate reader.
Data analysis: The apparent permeability coefficient Papp (cm/s) was calculated using the equation: Papp=(dCr/dt)×Vr/(A×C0) Where dCr/dt is the cumulative concentration of compound in the receiver chamber as a function of time (μM/s); Vr is the solution volume in the receiver chamber (0.075 mL on the apical side, 0.25 mL on the basolateral side); A is the surface area for the transport, i.e. 0.0804 cm2 for the area of the monolayer; C0 is the initial concentration in the donor chamber (μM).
The efflux ratio was calculated using the equation: Efflux Ratio=Papp(BA)/Papp(AB) Percent recovery was calculated using the equation: % Recovery=100×[(Vr×Cr)+(Vd×Cd)]/(Vd×C0) Where Vd is the volume in the donor chambers (0.075 mL on the apical side, 0.25 mL on the basolateral side); Cd and Cr are the final concentrations of transport compound in donor and receiver chambers, respectively.
Percent of lucifer yellow in basolateral well is calculated using the equation:
[formula] where RFUApical and RFUBasolateral are the relative fluorescence unit values of lucifer yellow in the apical and basolateral wells, respectively; VApical and VBasolateral are the volume of apical and basolateral wells (0.075 mL and 0.25 mL), respectively. Percent lucifer yellow should be less than 2.

H3K27me3 in Hela cells = assay: H3K27me3 Alpha Hela Assay (AlphaLISA); format: cell-based; settings: Homo sapiens, HeLa, 72 h
Experimental: H3K27me3 Alpha Hela Assay (AlphaLISA). Ten different doses of each test compound (in a series of 3-fold dilutions) were plated in duplicate 384-well tissue culture treated plates (Catalog #6007680; Perkin Elmer, Waltham, Mass.). Hela cells grown in culture were trypsinized and counted using a Countess® cell counter (Catalog #C10281; Life Technologies, Grand Island, N.Y.). Cell were diluted to 67,000 cells per mL in10% DMEM (Catalog #10569-010 Life Technologies, Grand Island, N.Y.) and 15 μL (1,000 cells) were plated into each well using the Biotek MicroFlo™ Select Dispenser (BioTek Instruments, Inc. Vermont, USA),) of the 384-well plate. Plates were incubated at 37° C./5% CO2 for 72 hrs. One of the duplicate plates was processed for HeLa assay and the other for viability. 5 μL of Cell-Histone Lysis buffer (1×) (Catalog #AL009F1 Perkin Elmer; Waltham, Mass.) per well was added to the plate processed for AlphaLISA and the plate was incubated at RT for 30 minutes on a plate shaker with low speed (Model# 4625-Q Thermo Scientific; Waltham, Mass.). Then, 10 μL per well Histone Extraction buffer (catalog #AL009F2; Perkin Elmer; Waltham, Mass.) was added and the plate further incubated at RT for 20 min on plate shaker with low speed. Next, 10 μL of 5× mix of anti-K27me3 acceptor beads plus Biotinylated anti-Histone H3 (C-ter) Antibody (diluted to 3 nM final) (Catalog #AL118 Perkin Elmer; Waltham, Mass.) was added in each well. Dilution of the acceptor beads and anti-Histone H3 was done in 1× Histone Detection buffer (Catalog #AL009F3 Perkin Elmer; Waltham, Mass.) which was produced by diluting the 10× stock provided. The plate was sealed with an aluminum plate sealer and incubated at 23° C. for 60 min. Next, 10 μL 5× solution of Streptavidin Donor beads were added (Catalog #6760002 Perkin Elmer; Waltham, Mass.) (20 μg/mL final in 1× Histone Detection Buffer), =plate was sealed with Aluminum plate sealer and incubated at 23° C. for 30 min. The plates were then read using an EnVision-Alpha Reader (model #2104 Perkin Elmer; Waltham, Mass.). […]

T1 sequence (Q15910 whole entry): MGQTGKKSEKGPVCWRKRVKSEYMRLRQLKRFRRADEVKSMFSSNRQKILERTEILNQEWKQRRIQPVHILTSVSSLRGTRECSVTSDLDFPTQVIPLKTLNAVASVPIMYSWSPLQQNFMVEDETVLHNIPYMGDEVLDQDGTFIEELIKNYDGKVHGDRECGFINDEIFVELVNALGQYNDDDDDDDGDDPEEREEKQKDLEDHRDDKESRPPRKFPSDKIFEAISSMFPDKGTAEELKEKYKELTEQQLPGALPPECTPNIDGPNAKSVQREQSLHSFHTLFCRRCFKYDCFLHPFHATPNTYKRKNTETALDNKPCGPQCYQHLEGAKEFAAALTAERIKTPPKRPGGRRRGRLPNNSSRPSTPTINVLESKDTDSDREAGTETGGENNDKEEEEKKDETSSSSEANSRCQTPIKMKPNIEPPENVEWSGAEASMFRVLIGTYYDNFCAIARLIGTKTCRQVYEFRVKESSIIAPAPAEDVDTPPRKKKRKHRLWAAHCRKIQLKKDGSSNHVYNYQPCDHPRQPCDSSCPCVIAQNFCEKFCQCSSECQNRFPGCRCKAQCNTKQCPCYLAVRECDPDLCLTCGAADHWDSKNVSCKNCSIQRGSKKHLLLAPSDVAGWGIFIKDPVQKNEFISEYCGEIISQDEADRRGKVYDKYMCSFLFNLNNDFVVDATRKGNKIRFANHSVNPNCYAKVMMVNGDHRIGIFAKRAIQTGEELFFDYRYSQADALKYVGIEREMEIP
T1 sequence (O75530 whole entry partner): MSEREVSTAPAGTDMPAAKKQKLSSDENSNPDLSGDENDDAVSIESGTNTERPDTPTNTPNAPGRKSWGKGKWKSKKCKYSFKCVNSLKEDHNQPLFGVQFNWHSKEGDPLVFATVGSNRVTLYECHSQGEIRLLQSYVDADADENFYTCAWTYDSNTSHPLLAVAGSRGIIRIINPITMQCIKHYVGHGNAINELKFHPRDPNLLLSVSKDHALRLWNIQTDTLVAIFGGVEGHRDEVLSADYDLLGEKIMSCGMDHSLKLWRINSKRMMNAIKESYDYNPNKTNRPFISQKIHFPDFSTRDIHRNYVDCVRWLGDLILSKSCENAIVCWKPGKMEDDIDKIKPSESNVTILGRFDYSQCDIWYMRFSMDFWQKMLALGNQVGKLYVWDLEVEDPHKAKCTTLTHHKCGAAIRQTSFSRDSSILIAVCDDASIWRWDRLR
T1 sequence (Q15022 whole entry partner): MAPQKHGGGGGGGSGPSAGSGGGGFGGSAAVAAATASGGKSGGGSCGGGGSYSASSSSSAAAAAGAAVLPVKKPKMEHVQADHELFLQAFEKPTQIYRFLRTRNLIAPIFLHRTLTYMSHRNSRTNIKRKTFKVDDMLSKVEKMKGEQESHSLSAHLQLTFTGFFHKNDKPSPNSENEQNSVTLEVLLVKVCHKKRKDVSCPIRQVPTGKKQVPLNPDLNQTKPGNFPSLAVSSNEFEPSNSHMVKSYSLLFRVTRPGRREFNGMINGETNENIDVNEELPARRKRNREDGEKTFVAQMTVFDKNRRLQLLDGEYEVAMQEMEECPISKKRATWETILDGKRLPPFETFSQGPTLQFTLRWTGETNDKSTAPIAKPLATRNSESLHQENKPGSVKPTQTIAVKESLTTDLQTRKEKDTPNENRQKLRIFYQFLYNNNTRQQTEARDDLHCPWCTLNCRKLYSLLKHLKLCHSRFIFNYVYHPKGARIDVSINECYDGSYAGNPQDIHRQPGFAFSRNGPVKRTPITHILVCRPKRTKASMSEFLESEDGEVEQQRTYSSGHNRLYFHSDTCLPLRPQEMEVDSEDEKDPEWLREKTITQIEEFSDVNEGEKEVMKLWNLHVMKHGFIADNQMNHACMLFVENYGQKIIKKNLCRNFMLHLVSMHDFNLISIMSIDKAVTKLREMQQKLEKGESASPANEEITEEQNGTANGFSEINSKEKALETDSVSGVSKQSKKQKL
T1 sequence (Q09028 whole entry partner): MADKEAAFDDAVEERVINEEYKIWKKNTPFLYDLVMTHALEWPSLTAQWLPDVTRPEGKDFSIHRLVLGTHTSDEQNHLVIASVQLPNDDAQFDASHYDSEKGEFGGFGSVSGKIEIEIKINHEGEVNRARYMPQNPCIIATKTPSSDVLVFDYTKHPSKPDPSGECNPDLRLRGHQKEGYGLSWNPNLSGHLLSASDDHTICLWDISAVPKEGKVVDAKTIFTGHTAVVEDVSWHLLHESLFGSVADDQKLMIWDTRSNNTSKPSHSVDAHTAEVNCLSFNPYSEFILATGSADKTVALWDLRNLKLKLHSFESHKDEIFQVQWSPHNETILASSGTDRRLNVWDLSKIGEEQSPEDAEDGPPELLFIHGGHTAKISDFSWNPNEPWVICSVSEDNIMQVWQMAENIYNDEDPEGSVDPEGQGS
T1 sequence (Q6ZN18 whole entry partner): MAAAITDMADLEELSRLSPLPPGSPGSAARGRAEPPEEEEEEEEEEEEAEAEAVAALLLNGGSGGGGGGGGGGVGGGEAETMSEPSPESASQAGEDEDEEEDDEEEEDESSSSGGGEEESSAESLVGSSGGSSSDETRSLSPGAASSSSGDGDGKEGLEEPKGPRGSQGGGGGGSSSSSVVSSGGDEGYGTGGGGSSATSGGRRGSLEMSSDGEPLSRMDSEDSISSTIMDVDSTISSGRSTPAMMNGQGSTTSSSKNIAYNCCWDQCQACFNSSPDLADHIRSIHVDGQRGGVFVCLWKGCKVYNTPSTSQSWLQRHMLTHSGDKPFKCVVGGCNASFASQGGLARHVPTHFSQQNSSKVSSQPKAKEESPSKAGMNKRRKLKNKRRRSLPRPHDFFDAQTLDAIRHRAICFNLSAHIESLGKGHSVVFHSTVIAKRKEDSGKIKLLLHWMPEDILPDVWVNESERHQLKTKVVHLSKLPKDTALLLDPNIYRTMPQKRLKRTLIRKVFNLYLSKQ

IC50 (PRC2 containing wt EZH2 [1]) | GI50 (Karpas-422 cell lines) | residence time (PRC2 containing wt EZH2 [2]) | Papp at 2.5 h, 2 μM [3] | efflux ratio at 2.5 h, 2 μM [3] | EC50 (H3K27me3 in Hela cells) | Structure (SMILES)
0.12 nM | 12 nM | 1980 min | 12 ×10⁻⁶ cm/s | 0.71 | – | CSc1cc(C)[nH]c(=O)c1CNC(=O)c1cc(Cl)c2c(c1C)OC(C)(C1CCC(N3CC(F)(F)C3)CC1)O2 (single isomer, unassigned) [Example 7-Enantiomer 2]
0.054 nM | 22 nM | – | 1.1 ×10⁻⁶ cm/s | 3.6 | 3.6 nM | CSc1nc(C)[nH]c(=O)c1CNC(=O)c1cc(Cl)c2c(c1C)O[C@@](C)([C@H]1CC[C@H](N(C)C)CC1)O2 [Example 5]
